From ChEMBL document CHEMBL6153109, “Switching Roles─Exploring Concentration-Dependent Agonistic versus Antagonistic Behavior of Integrin Ligands” (J Med Chem, 2025)
One block for each compound: values may come before it. Calls of active or inactive are those of the source. No cut-off for these calls is given here.

Columns and labels:
[1] = target: T1, Integrin alpha-5/beta-1 (Homo sapiens, UniProt P05556+P08648); experiment: Agonist activity at integrin alpha5beta1 in human OV-MZ-6 cells assessed as increase in p-FAK expression at 1 uM incubated for 24 hrs by Western blot analysis; format: cell-based
[2] = tested on: OV-MZ-6; experiment: Inhibition of cell migration in human OV-MZ-6 cells expressing integrin alpha5beta1 assessed as delay in wound gap closure at 1 nM measured after 9 to 72 hrs by wound scratch assay; format: functional, cell-based; details: time 9-72 hrs
[3] = target: T2, Integrin alpha-V/beta-6 (Homo sapiens, UniProt P06756+P18564); experiment: Agonist activity at integrin alphaVbeta6 in human HN cells assessed as fold increase in p-FAK expression at 1 nM measured within 30 mins by Western blot analysis (reference value: 1); format: cell-based; details: filed as agonist
[4] = tested on: OV-MZ-6; experiment: Inhibition of cell adhesion in human OV-MZ-6 cells expressing integrin alpha5beta1 at 1 uM measured after 48 hrs by microscopic imaging analysis; format: functional, cell-based
[5] = target: T1, Integrin alpha-5/beta-1; experiment: Agonist activity at integrin alpha5beta1 in human OV-MZ-6 cells assessed as increase in FAK expression at 1 uM measured after 5 to 60 mins by Western blot analysis; format: cell-based; details: time 5-60 min
[6] = tested on: M21; experiment: Inhibition of cell migration in human M21 cells expressing integrin alphaVbeta3 assessed as delay in wound gap closure at 1 to 1000 nM measured after 9 to 72 hrs by wound scratch assay; format: functional, cell-based; details: dose 1-1000 nM, time 9-72 hrs
[7] = target: T2, Integrin alpha-V/beta-6; experiment: Agonist activity at integrin alphaVbeta6 in human HN cells assessed as fold increase in p-FAK expression at 1 uM measured within 30 mins by Western blot analysis (reference value: 1); format: cell-based; details: filed as agonist
[8] = tested on: OV-MZ-6; experiment: Inhibition of cell migration in human OV-MZ-6 cells expressing integrin alpha5beta1 assessed as delay in wound gap closure at 1 uM measured within 72 hrs by wound scratch assay; format: functional, cell-based
[9] = target: T3, Integrin alpha-V/beta-3 (Homo sapiens, UniProt P05106+P06756); experiment: Agonist activity at integrin alphaVbeta3 in human M21 cells assessed as increase in p-ERK1/2 expression at 1 uM incubated for 24 hrs by Western blot analysis; format: cell-based; details: filed as agonist
[10] = target: T3, Integrin alpha-V/beta-3; experiment: Agonist activity at integrin alphaVbeta3 in human M21 cells assessed as increase in FAK expression at 1 nM incubated for 5 to 60 mins by Western blot analysis; format: cell-based; details: time 5-60 min
[11] = tested on: OV-MZ-6; experiment: Inhibition of cell migration in human OV-MZ-6 cells expressing integrin alpha5beta1 assessed as delay in wound gap closure at 1 uM measured within 24 hrs by wound scratch assay; format: functional, cell-based
[12] = target: T1, Integrin alpha-5/beta-1; experiment: Agonist activity at integrin alpha5beta1 in human OV-MZ-6 cells assessed as fold increase in FAK expression at 1 nM measured after 5 mins by Western blot analysis (reference value: 1); format: cell-based; details: filed as agonist
[13] = tested on: OV-MZ-6; experiment: Inhibition of cell adhesion in human OV-MZ-6 cells expressing integrin alpha5beta1 at 1 nM measured after 48 hrs by microscopic imaging analysis; format: functional, cell-based
[14] = target: T1, Integrin alpha-5/beta-1; experiment: Agonist activity at integrin alpha5beta1 in human OV-MZ-6 cells assessed as increase in p-ERK1/2 expression at 1 uM incubated for 24 hrs by Western blot analysis; format: cell-based
[15] = target: T3, Integrin alpha-V/beta-3; experiment: Agonist activity at integrin alphaVbeta3 in human M21 cells assessed as increase in p-FAK expression at 1 nM incubated for 5 to 60 mins by Western blot analysis; format: cell-based; details: time 5-60 min
[16] = target: T1, Integrin alpha-5/beta-1; experiment: Agonist activity at integrin alpha5beta1 in human OV-MZ-6 cells assessed as increase in FAK expression at 1 nM measured after 30 to 60 mins by Western blot analysis; format: cell-based; details: time 30-60 min
[17] = Drug uptake in human OV-MZ-6 cells overexpressing integrin […] at 1 uM measured after 300 mins by Hoechst 33342 staining based fluorescence analysis; format: ADME, cell-based; details: ov-mz-6, 5 h
[18] = Drug uptake in human HN cells overexpressing integrin alphaVbeta6 at 1 uM measured at 60 to 300 mins by Hoechst 33342 staining based fluorescence analysis; format: ADME, cell-based; details: time 60-300 min
[19] = Drug uptake in human HN cells overexpressing integrin alphaVbeta6 at 1 uM measured within 3 mins by Hoechst 33342 staining based fluorescence analysis; format: ADME, cell-based; details: 0.05 h
[20] = Drug localization in cell membrane of human M21 cells overexpressing integrin alphaVbeta3 at 1 uM measured at 30 mins by CellMask green staining based fluorescence analysis; format: ADME, cell membranes; details: m21, 0.5 h
[21] = Drug localization in cell membrane of human M21 cells overexpressing integrin alphaVbeta3 at 1 uM measured within 3 mins by CellMask green staining based fluorescence analysis; format: ADME, cell membranes; details: m21, 0.05 h
[22] = Drug uptake in human M21 cells overexpressing integrin alphaVbeta3 at 1 uM measured at 60 to 300 mins by Hoechst 33342 staining based fluorescence analysis; format: ADME, cell-based; details: m21, 1 µM, time 60-300 min

Activity [1]: inactive
fold change (FC) [3]: 4
Activity [5]: inactive
fold change (FC) [7]: 3
Activity [9]: Active
Activity [10]: inactive
fold change (FC) [12]: 1.6
Activity [14]: inactive
Activity [16]: inactive
Structure (SMILES): C#CCCC(=O)NCCCOc1cc(C)c(C(=O)N[C@@H](CNC(=O)CNC(=O)c2cccc(NC(=N)N)c2)C(=O)O)c(C)c1
inhibition [2]: inactive
inhibition [4]: Active
inhibition [6]: inactive
inhibition [8]: inactive
inhibition [11]: Active
inhibition [13]: inactive
Activity [15]: Not active; Slight Increase Compared To Control Observed

Structure (SMILES): CC(C)C[C@@H]1NC(=O)[C@H](CC(=O)O)NC(=O)CNC(=O)[C@H](CCCNC(=N)N)NC(=O)[C@H](Cc2ccccc2)NC(=O)[C@H](CCCCNC(=O)CCCCCNC(=O)CCCCC[N+]2=C(/C=C/C=C/C=C3/N(C)c4ccc5ccccc5c4C3(C)C)C(C)(C)c3c2ccc2ccccc32)N(C)C(=O)[C@H]2CCCN2C(=O)[C@H](Cc2ccccc2)NC(=O)[C@H](C)NC1=O
Drug uptake [17]: Not_active
Drug uptake [18]: Active
Drug uptake [19]: Active

Drug uptake [17]: Active
Drug uptake [20]: Active
Drug uptake [21]: Active
Drug uptake [22]: Active
Structure (SMILES): COc1ccnc(NCCCOc2ccc(C[C@@H](CC(=O)O)NC(=O)c3ccc(OCCCNC(=O)CCCCCNC(=O)CCCCC[N+]4=C(/C=C/C=C/C=C5/N(C)c6ccc7ccccc7c6C5(C)C)C(C)(C)c5c4ccc4ccccc54)cc3)cc2)c1
